Patent US20110319411A1, “ISOINDOLINONE AND RELATED ANALOGS AS SIRTUIN MODULATORS” (Sirtis Pharmaceuticals, Inc., priority 2008, published 2011)

Biological target: T1, SIRT1 (Homo sapiens, UniProt Q96EB6)
T1 construct: made in house; host or cells: E. coli BL21(DE3)
T1 sequence (Q96EB6 1-747): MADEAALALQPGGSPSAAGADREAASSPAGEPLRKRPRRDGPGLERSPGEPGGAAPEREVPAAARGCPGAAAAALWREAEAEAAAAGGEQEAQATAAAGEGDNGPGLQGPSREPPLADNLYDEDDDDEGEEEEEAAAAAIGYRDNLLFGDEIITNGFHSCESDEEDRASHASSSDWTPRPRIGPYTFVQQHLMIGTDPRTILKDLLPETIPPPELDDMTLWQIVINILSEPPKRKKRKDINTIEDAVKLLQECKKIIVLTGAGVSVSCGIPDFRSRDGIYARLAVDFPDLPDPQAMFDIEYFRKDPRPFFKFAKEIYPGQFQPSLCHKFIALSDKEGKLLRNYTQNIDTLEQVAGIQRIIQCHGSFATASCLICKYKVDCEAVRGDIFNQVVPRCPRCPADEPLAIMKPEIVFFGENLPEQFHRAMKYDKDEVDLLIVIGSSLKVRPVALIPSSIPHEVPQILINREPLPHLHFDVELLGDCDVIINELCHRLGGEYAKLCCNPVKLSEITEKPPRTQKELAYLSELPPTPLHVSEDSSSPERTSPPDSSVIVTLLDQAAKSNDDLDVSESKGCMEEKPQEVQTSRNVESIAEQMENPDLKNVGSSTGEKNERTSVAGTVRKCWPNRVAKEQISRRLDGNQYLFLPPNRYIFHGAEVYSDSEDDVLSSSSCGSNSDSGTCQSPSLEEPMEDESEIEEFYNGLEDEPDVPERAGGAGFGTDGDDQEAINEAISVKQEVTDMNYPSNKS
Experiment: mass spectrometry based assay to identify modulators of SIRT1 activity
Format: biochemical
Conditions: 10 nM SIRT1, 0.5 μM peptide substrate, 120 μM βNAD+, 25 minutes at 25° C.; for Emax: 25 min, read-out: % FOLD ACT. (percent maximum fold activation)
Source text: A mass spectrometry based assay was used to identify modulators of SIRT1 activity. The mass spectrometry based assay utilizes a peptide having 20 amino acid residues as follows: Ac-EE-K(biotin)-GQSTSSHSK(Ac)NleSTEG-K(5TMR)-EE-NH2 (SEQ ID NO: 1) wherein K(Ac) is an acetylated lysine residue and Nle is a norleucine. The peptide is labeled with the fluorophore 5TMR (excitation 540 nm/emission 580 nm) at the C-terminus. The sequence of the peptide substrate is based on p53 with several modifications. In addition, the methionine residue naturally present in the sequence was replaced with the norleucine because the methionine may be susceptible to oxidation during synthesis and purification.
The mass spectrometry assay is conducted as follows: 0.5 μM peptide substrate and 120 μM βNAD^+ is incubated with 10 nM SIRT1 for 25 minutes at 25° C. in a reaction buffer (50 mM Tris-acetate pH 8, 137 mM NaCl, 2.7 mM KCl, 1 mM MgCl2, 5 mM DTT, 0.05% BSA). Test compounds may be added to the reaction as described above. The SirT1 gene is cloned into a T7-promoter containing vector and transformed into BL21(DE3). After the 25 minute incubation with SIRT1, 10 μL of 10% formic acid is added to stop the reaction. Reactions are sealed and frozen for later mass spec analysis. Determination of the mass of the substrate peptide allows for precise determination of the degree of acetylation (i.e. starting material) as compared to deacetylated peptide (product).
A control for inhibition of sirtuin activity is conducted by adding 1 μL of 500 mM nicotinamide as a negative control at the start of the reaction (e.g., permits determination of maximum sirtuin inhibition). A control for activation of sirtuin activity is conducted using 10 nM of sirtuin protein, with 1 μL of DMSO in place of compound, to determine the amount of deacetylation of the substrate at a given timepoint within the linear range of the assay. This timepoint is the same as that used for test compounds and, within the linear range, the endpoint represents a change in velocity.
For the above assay, SIRT1 protein was expressed and purified as follows. The SirT1 gene was cloned into a T7-promoter containing vector and transformed into BL21(DE3). The protein was expressed by induction with 1 mM IPTG as an N-terminal His-tag fusion protein at 18° C. overnight and harvested at 30,000×g. Cells were lysed with lysozyme in lysis buffer (50 mM Tris-HCl, 2 mM Tris[2-carboxyethyl]phosphine (TCEP), 10 μM ZnCl2, 200 mM NaCl) and further treated with sonication for 10 min for complete lysis. The protein was purified over a Ni-NTA column (Amersham) and fractions containing pure protein were pooled, concentrated and run over a sizing column (Sephadex S200 26/60 global). The peak containing soluble protein was collected and run on an Ion-exchange column (MonoQ). Gradient elution (200 mM-500 mM NaCl) yielded pure protein. This protein was concentrated and dialyzed against dialysis buffer (20 mM Tris-HCl, 2 mM TCEP) overnight. The protein was aliquoted and frozen at −80° C. until further use.
Sirtuin modulating compounds that activated SIRT1 were identified using the assay described above and are shown below in Table 1. The EC1.5 values represent the concentration of test compounds that result in 150% activation of SIRT1. The EC1.5 values for the activating compounds are represented by A (EC1.5<10 μM), B (EC1-5 10-25 μM), C (EC1.5>25 μM). The percent maximum fold activation is represented by A (Fold activation >200%) or B (Fold Activation <200%).

SMILES	EC1.5 (concentration of test compound that results in 150% activation of SIRT1)	Emax
O=C(Nc1cccc2c1C(=O)N(c1cccc(OC(F)(F)F)c1)C2)c1cccc(OCC(O)CO)n1 (stereo not shown) [Compound 131]	C (EC1.5>25 μM)	< 200%
O=C(Nc1cccc2c1C(=O)N(c1cccc(OC(F)(F)F)c1)C2)c1cccc(CN2CCOCC2)n1 [Compound 132]	A (EC1.5<10 μM)	< 200%
O=C(Nc1cccc2c1C(=O)N(c1cccc(C(F)(F)F)c1)C2)c1nccs1 [Compound 133]	C (EC1.5>25 μM)	< 200%
O=C(Nc1cccc2c1C(=O)N(c1cccc(C(F)(F)F)c1)C2)c1cccnn1 [Compound 134]	C (EC1.5>25 μM)	< 200%
O=C(Nc1cccc2c1C(=O)N(c1cccc(C(F)(F)F)c1)C2)c1cccc(N2CCOCC2)n1 [Compound 135]	C (EC1.5>25 μM)	< 200%
O=C(Nc1cccc2c1C(=O)N(c1cccc(C(F)(F)F)c1)C2)c1cccc(N2CCCC2)n1 [Compound 136]	C (EC1.5>25 μM)	< 200%
O=C(Nc1cccc2c1C(=O)N(c1cccc(C(F)(F)F)c1)C2)c1cncc(N2CCOCC2)n1 [Compound 137]	C (EC1.5>25 μM)	< 200%
O=C(Nc1cccc2c1C(=O)N(c1cccc(C(F)(F)F)c1)C2)c1cccc(C2CCNC2)c1 (stereo not shown) [Compound 138]	A (EC1.5<10 μM)	> 200%
